From patent US11649246B2, “Salts of 4-amino-N-(l-((3-chloro-2-fluorophenyl)amino)-6-methylisoquinolin-5-yl)thieno[3,2-D]pyrimidine-7-carboxamide, and crystalline forms thereof” (Hanmi Pharm. Co., Ltd., priority 2017, dated 2023)
In brackets after ≈: the same amount, converted by molar mass. Read-outs that look alike come from different tables or passages of the source.

Assays:
[1] = Solubility of bis-hydrochloride Form I by HPLC test and observation test; format: physicochemical
Experimental: Solubility was measured by HPLC according to KP, USP and EP general chapters. […] The results of solubility were same between HPLC test and observation test.

[2] = Stress stability test at 60° C.; format: physicochemical
Experimental: In order to compare physicochemical stability among the crystalline form prepared in Example 3 (crystalline Formula (I) bis-hydrochloride Form I) and 16 (Formula (I) crystalline free base), and the amorphous form prepared in Comparative Example 1, a stress stability test was conducted by storing samples at 60° C., for different periods of time up to 4 weeks.

Cc1ccc2c(Nc3cccc(Cl)c3F)nccc2c1NC(=O)c1csc2c(N)ncnc12 [Example 3, 4-amino-N-(1-((3-chloro-2-fluorophenyl)amino)-6-methylisoquinolin-5-yl)thieno[3,2-d]pyrimidine-7-carboxamide]
solubility ([1]; ACN): 113431 mL/g
Solubility Observation ([1]; ACN, listed as Formula (I) bis-hydrochloride Form I): Practically insoluble
solubility ([1]; DMSO): 8 mL/g
Solubility Observation ([1]; DMSO, listed as Formula (I) bis-hydrochloride Form I): Freely soluble
solubility ([1]; Dichloromethane): 366289 mL/g
Solubility Observation ([1]; Dichloromethane, listed as Formula (I) bis-hydrochloride Form I): Practically insoluble
solubility ([1]; Ethanol): 1316 mL/g
Solubility Observation ([1]; Ethanol, listed as Formula (I) bis-hydrochloride Form I): Very slightly soluble
solubility ([1]; Ethyl acetate): 356535 mL/g
Solubility Observation ([1]; Ethyl acetate, listed as Formula (I) bis-hydrochloride Form I): Practically insoluble
solubility ([1]; Ethyl ether): 522061 mL/g
Solubility Observation ([1]; Ethyl ether, listed as Formula (I) bis-hydrochloride Form I): Practically insoluble
solubility ([1]; Methanol): 58 mL/g
Solubility Observation ([1]; Methanol, listed as Formula (I) bis-hydrochloride Form I): Sparingly soluble
solubility ([1]; Water): 654940 mL/g
Solubility Observation ([1]; Water, listed as Formula (I) bis-hydrochloride Form I): Practically insoluble
solubility ([1]; aqueous buffer, thermodynamic from solid, pH 3.0 buffer, read-out: Solubility): 20 µg/mL (≈ 41.8 µM)
solubility ([1]; aqueous buffer, thermodynamic from solid, pH 4.0 buffer, read-out: Solubility): 3 µg/mL (≈ 6.26 µM)
solubility ([1]; aqueous buffer, thermodynamic from solid, pH 5.0 buffer, read-out: Solubility): 0.09 µg/mL (≈ 0.188 µM)
solubility ([1]; aqueous buffer, thermodynamic from solid, pH 6.0 buffer, read-out: Solubility): 0.1 µg/mL (≈ 0.209 µM)
solubility ([1]; aqueous buffer, thermodynamic from solid, pH 6.8 buffer, read-out: Solubility): 0.09 µg/mL (≈ 0.188 µM)
solubility ([1]; aqueous buffer, thermodynamic from solid, pH 7.0 buffer, read-out: Solubility): 0.06 µg/mL (≈ 0.125 µM)
solubility ([1]; aqueous buffer, thermodynamic from solid, pH 8.0 buffer, read-out: Solubility): 0.05 µg/mL (≈ 0.104 µM)
solubility ([1]; n-Hexane): 22316479 mL/g
Solubility Observation ([1]; n-Hexane, listed as Formula (I) bis-hydrochloride Form I): Practically insoluble
solubility ([1]; organic solvent or mixture, thermodynamic from solid, ACN, read-out: Solubility): 8 µg/mL (≈ 16.7 µM)
solubility ([1]; organic solvent or mixture, thermodynamic from solid, DMSO, read-out: Solubility): 131000 µg/mL (≈ 273000 µM)
solubility ([1]; organic solvent or mixture, thermodynamic from solid, Dichloromethane, read-out: Solubility): 2.7 µg/mL (≈ 5.64 µM)
solubility ([1]; organic solvent or mixture, thermodynamic from solid, Ethanol, read-out: Solubility): 800 µg/mL (≈ 1670 µM)
solubility ([1]; organic solvent or mixture, thermodynamic from solid, Ethyl acetate, read-out: Solubility): 2.8 µg/mL (≈ 5.85 µM)
solubility ([1]; organic solvent or mixture, thermodynamic from solid, Ethyl ether, read-out: Solubility): 1.9 µg/mL (≈ 3.97 µM)
solubility ([1]; organic solvent or mixture, thermodynamic from solid, Methanol, read-out: Solubility): 17400 µg/mL (≈ 36300 µM)
solubility ([1]; organic solvent or mixture, thermodynamic from solid, n-Hexane, read-out: Solubility): 0.04 µg/mL (≈ 0.0835 µM)
solubility ([1]; pH 1.2 buffer): 3811 mL/g
Solubility Observation ([1]; pH 1.2 buffer, listed as Formula (I) bis-hydrochloride Form I): Very slightly soluble
solubility ([1]; pH 2.0 buffer): 1688 mL/g
Solubility Observation ([1]; pH 2.0 buffer, listed as Formula (I) bis-hydrochloride Form I): Very slightly soluble
Solubility Observation ([1]; pH 3.0 buffer): Practically insoluble
solubility ([1]; pH 3.0 buffer): 42855 mL/g
Solubility Observation ([1]; pH 4.0 buffer): Practically insoluble
solubility ([1]; pH 4.0 buffer): 331069 mL/g
Solubility Observation ([1]; pH 5.0 buffer): Practically insoluble
solubility ([1]; pH 5.0 buffer): 10759731 mL/g
Solubility Observation ([1]; pH 6.0 buffer): Practically insoluble
solubility ([1]; pH 6.0 buffer): 9770999 mL/g
Solubility Observation ([1]; pH 6.8 buffer): Practically insoluble
solubility ([1]; pH 6.8 buffer): 11528283 mL/g
Solubility Observation ([1]; pH 7.0 buffer): Practically insoluble
solubility ([1]; pH 7.0 buffer): 16139597 mL/g
Solubility Observation ([1]; pH 8.0 buffer): Practically insoluble
solubility ([1]; pH 8.0 buffer): 21884199 mL/g
solubility ([1]; simulated gastric fluid, thermodynamic from solid, pH 1.2 buffer, read-out: Solubility): 300 µg/mL (≈ 626 µM)
solubility ([1]; simulated gastric fluid, thermodynamic from solid, pH 2.0 buffer, read-out: Solubility): 600 µg/mL (≈ 1250 µM)
solubility ([1]; thermodynamic from solid, Water, read-out: Solubility): 1.5 µg/mL (≈ 3.13 µM)
Purity(%) (A % by HPLC) ([2]; 2 weeks): 99.8%
Total impurities(%) (A % by HPLC) ([2]; 2 weeks): 0.16%
Purity(%) (A % by HPLC) ([2]; 4 weeks): 99.8%
Total impurities(%) (A % by HPLC) ([2]; 4 weeks): 0.23%
Purity(%) (A % by HPLC) ([2]; 1 day): 99.8%
Total impurities(%) (A % by HPLC) ([2]; 1 day): 0.17%
Purity(%) (A % by HPLC) ([2]; 3 days): 99.8%
Total impurities(%) (A % by HPLC) ([2]; 3 days): 0.15%
Purity(%) (A % by HPLC) ([2]; 7 days): 99.8%
Total impurities(%) (A % by HPLC) ([2]; 7 days): 0.19%
Purity(%) (A % by HPLC) ([2]; Initial): 99.8%
Total impurities(%) (A % by HPLC) ([2]; Initial): 0.17%
physicochemical stability (summary in words) ([2]; up to 4 weeks, listed as crystalline form (Form I) of the dihydrochloride): remarkably superior stability over the amorphous form
